{"source": "patent US11672792B2", "about": "“Topical formulations comprising montelukast and combinations with mussel adhesive proteins” (ENLITISA (SHANGHAI) PHARMACEUTICAL CO., LTD, priority 2017, dated 2023)", "system": "carrageenan-induced acute inflammation in subcutaneous air pouch", "test": "Air Pouch Model II (Example 2)", "type": "in vivo, mice", "method": "In Table 6, “Dex” is an abbreviation for dexamethasone and “Dopamine” is a 4 mg/mL aqueous solution of dopamine hydrochloride (Shanghai Aladdin Bio-Chem Technology Co., Ltd., Shanghai, China).\nThe histological specimens were analysed and an inflammation score, an activity score and a fibroplastic proliferation score were estimated as in Example 1 above and are tabulated in Table 9 below.", "key": {"[1]": {"details": "Dex 400 μg, Dopamine 2 mg, MAP 250 μg, Mon 100 μg"}, "[2]": {"details": "doses/mouse: Dex 400 μg, Dopamine 2 mg, MAP 250 μg, Mon 100 μg"}}, "data": [{"smiles": "Cl.NCCc1ccc(O)c(O)c1", "note": "[Dopamine, dopamine hydrochloride]", "values": [{"measurement": "Activity score", "setting": "[1]", "result": 1.67}, {"measurement": "Edema Score", "setting": "[1]", "result": 2.33}, {"measurement": "Fibroplastic proliferation score", "setting": "[1]", "result": 0.00}, {"measurement": "IFN-γ in exudate (ELISA)", "setting": "[1]", "result": "5153.02 ± 5773.45"}, {"measurement": "IL-6 in exudate (ELISA)", "setting": "[1]", "result": "1740.11 ± 765.02"}, {"measurement": "Inflammation score", "setting": "[1]", "result": 2.00}, {"measurement": "Leukocyte count in exudate", "setting": "[1]", "result": "1.91e+06", "unit": "mL⁻¹"}, {"measurement": "Lymphocyte count in exudate", "setting": "[1]", "result": 50000, "unit": "mL⁻¹"}, {"measurement": "Monocyte count in exudate", "setting": "[1]", "result": "1.58e+06", "unit": "mL⁻¹"}, {"measurement": "Neutrophil count in exudate", "setting": "[1]", "result": 190000, "unit": "mL⁻¹"}, {"measurement": "Sum (of histology scores)", "setting": "[1]", "result": 6.00}, {"measurement": "Exudate volume", "setting": "[2]", "result": "2.93 ± 0.06", "unit": "mL"}, {"measurement": "Pouch Wall Weight", "setting": "[2]", "result": "0.44 ± 0.07", "unit": "g"}, {"measurement": "pouch wall fibrous tissue proliferation (in words)", "setting": "histology", "result": "no fibrous tissue proliferation"}, {"measurement": "pouch wall inflammatory / lymph cell infiltration (in words)", "setting": "histology", "result": "a lot of"}, {"measurement": "pouch wall interstitial edema (in words)", "setting": "histology", "result": "mild to moderate"}]}]}
